Laboratory results: article PMC7735563, “5,5-Dialkylluciferins are thermal stable substrates for bioluminescence-based detection systems” (PLoS ONE, 2020)

Test system: T1, Ultra-Glo™ luciferase
T1 construct: gene Firefly luciferase; HisLink purified; starting enzyme also obtained from Promega
Experiment: luminescence, Michaelis-Menten
Assay type: biochemical
Details: 1 mM ATP, Bright-Glo buffer, 25 °C
Text: luminescence, Michaelis-Menten on Ultra-Glo™ luciferase

Row | Km | SMILES
1 | 7470 nM | CC1(C)SC(c2nc3ccc(O)cc3s2)=NC1C(=O)O (racemic) [III-a, 2-(6-Hydroxybenzo[d]thiazol-2-yl)-5,5-dimethyl-4,5-dihydrothiazole-4-carboxylic acid]
2 | 1710 nM | O=C(O)C1N=C(c2nc3ccc(O)cc3s2)SC12CC2 (racemic) [III-b, 5-(6-Hydroxybenzo[d]thiazol-2-yl)-4-thia-6-azaspiro[2.4]hept-5-ene-7-carboxylic acid]

Row | SMILES | Km
3 | O=C(O)[C@H]1CSC(c2nc3ccc(O)cc3s2)=N1 [LH2, D-luciferin] | 490 nM
